Source: PMC13327496, “The X‐Ray Crystal Structure of BorF, the Flavin Reductase Subunit of a Two‐Component Flavin‐Dependent Tryptophan Halogenase” (Proteins, 2026)
Blank lines part the entries; values can stand above or below the compound they belong to.

Columns and labels:
BorF = target: T1, BorF (uncultured bacterium, UniProt M9QXS1); test: NADH depletion at […] nm; assay type: biochemical; settings: 25 mM HEPES pH 7.5, room temperature
T1 construct: full-length residues 1-196 plus an N-terminal Pro after PreScission cleavage; His6-MBP tag removed; synthetic gene, E. coli Rosetta2(DE3) pLysS; homodimer
T1 sequence (M9QXS1 1-196): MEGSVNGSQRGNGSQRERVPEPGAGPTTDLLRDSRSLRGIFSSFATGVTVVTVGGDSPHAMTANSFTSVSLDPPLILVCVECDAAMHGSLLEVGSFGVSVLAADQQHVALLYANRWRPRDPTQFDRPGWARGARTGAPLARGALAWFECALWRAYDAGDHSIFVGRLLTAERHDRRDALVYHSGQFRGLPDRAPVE

[1] = target: BorF (soil bacterial metagenome from the Anza-Borrego desert); test: SEC; BorF alone after tag cleavage, Superdex 200, 20 mM Tris pH 7.5, 150 mM NaCl; single peak at 78.2 mL

Compound: Cc1cc2nc3c(=O)[nH]c(=O)nc-3n(C[C@H](O)[C@H](O)[C@H](O)COP(=O)(O)O)c2cc1C [FMN]
NADH depletion at 340 nm (BorF; apo-BorF, 25 μM FMN, 100 μM NADH): BorF utilizes FAD as a substrate but is also able to reduce FMN and riboflavin

Compound: NC(=O)C1=CN([C@@H]2O[C@H](COP(=O)(O)OP(=O)(O)OC[C@H]3O[C@@H](n4cnc5c(N)ncnc54)[C@H](O)[C@@H]3O)[C@@H](O)[C@H]2O)C=CC1 [NADH]
NADH depletion at 340 nm (BorF; apo-BorF 0.2 μM, 25 μM FAD): BorF oxidizes NADH to NAD^+, as determined by NADH depletion monitored by absorbance

stoichiometry N [1]: 2
Compound: BorF (enzyme)
